In the assay the test system is MCH receptors. The experiment in a line: MCH receptor activity class (method not given).
The mark [1] stands for this setting: MCH receptor, class by percent of control at 10^-7 M or IC50.
Setting [2] is: class by percent of control at 10^−7 M or IC50.
The mark [3] stands for this setting: class by percent of control at 10^-7 M or IC50.
Setting [4] is: activity class 1-3: percent of control at 10^-7 M or IC50.
The mark [5] stands for this setting: MCH receptor activity class 1-3 (percent of control at 10^-7 M or IC50).
The mark [6] stands for this setting: class 1-3 by percent of control at 10^-7 M or IC50.

Take `CN(C)c1nc(N[C@H]2CC[C@@H](NC(=S)Nc3ccc(-c4nc5c6ccccc6c6ccccc6c5o4)cc3)CC2)nc2c1CCCC2` [compound 2075]: under setting [1], the class was 3 (Class 3 The value of percent of control at 10^−7 M was more than 60% or the value of IC50 was more than 200 nM.).
With `COc1ccc(N(C)CC(=O)N[C@H]2CC[C@@H](Nc3ncc(C)c(N(C)C)n3)CC2)cc1` [compound 2948], the class under setting [2] was 2 (Class 2: The value of percent of control at 10^−7 M was from 40% to 60% or the value of IC′50 was from 50 nM to 200 nM.).
Consider `CN(C)c1nc(N[C@H]2CC[C@@H](NC(=S)Nc3ccc(F)c(C(F)(F)F)c3)CC2)nc2c1CCCC2` [compound 1993], for which, under setting [1], the class is reported as 3 (Class 3 The value of percent of control at 10^−7 M was more than 60% or the value of IC50 was more than 200 nM.).
The same measure, in the same setting: under `CN(C)c1ccc(NC(=O)N[C@H]2CC[C@@H](Nc3nc4c(c(N(C)C)n3)CCCC4)CC2)cc1` [compound 1922] stands 3 (Class 3 The value of percent of control at 10^−7 M was more than 60% or the value of IC50 was more than 200 nM.).
Consider `CCOc1ccc(C(=O)CC(C(=O)NC[C@H]2CC[C@@H](Nc3nccc(N(C)C)n3)CC2)C2C(=O)N(c3ccccc3)N=C2C)cc1` (relative stereo) [compound 944], for which the class under setting [3] is 3 (Class 3 The value of percent of control at 10^−7 M was more than 60% or the value of IC50 was more than 200 nM.).
As for `COc1cc(Br)cc(CNC[C@H]2CC[C@@H](Nc3cc(N(C)C)c4ccccc4n3)CC2)c1O` [compound 1129], where the note is “activity class per percent of control at 10^-7 M or IC50”, the class is 2 (Class 2: The value of percent of control at 10^−7 M was from 40% to 60% or the value of IC′50 was from 50 nM to 200 nM.).
As to `CN(C)c1ccnc(N[C@H]2CC[C@@H](CNC(=O)OCC3c4ccccc4-c4ccccc43)CC2)n1` [compound 1657], the class under setting [4] was 3 (Class 3 The value of percent of control at 10^−7 M was more than 60% or the value of IC50 was more than 200 nM.).
Turning to `Cc1cc2occ(CN[C@H]3CC[C@@H](Nc4nc5c(c(N(C)C)n4)CCCC5)CC3)c(=O)c2cc1Cl` [compound 1349], under setting [3], the class is given as 3 (Class 3 The value of percent of control at 10^−7 M was more than 60% or the value of IC50 was more than 200 nM.).
Turning to `CN(C)c1nc(N[C@H]2CC[C@@H](NC(=S)Nc3cc([N+](=O)[O-])ccc3Cl)CC2)nc2c1CCCC2` [compound 2035], the class under setting [1] was 3 (Class 3 The value of percent of control at 10^−7 M was more than 60% or the value of IC50 was more than 200 nM.).
Regarding `Cc1cc(N(C)C)nc(N[C@H]2CC[C@@H](C(=O)NCc3ccc(Cl)cc3Cl)CC2)n1` [compound 2807, cis-N-(2,4-dichlorobenzyl)-4-{[4-(dimethylamino)-6-methylpyrimidin-2-yl]amino}cyclohexanecarboxamide], the class under setting [2] is 1 (Class 1: The value of percent of control at 10^−7 M was less than 40% or the value of IC50 was less than 50 nM.).
`CCc1cccc(CC)c1NC(=O)NC[C@H]1CC[C@@H](Nc2nc3c(c(N(C)C)n2)CCCC3)CC1` [compound 2464]: the class under setting [5] is 1 (Class 1: The value of percent of control at 10^−7 M was less than 40% or the value of IC50 was less than 50 nM.).
On to `CSc1ccc(NC(=O)N[C@H]2CC[C@@H](Nc3nc4c(c(N(C)C)n3)CCCC4)CC2)cc1` [compound 1665], for which, under setting [4], the class is 3 (Class 3 The value of percent of control at 10^−7 M was more than 60% or the value of IC50 was more than 200 nM.).
On the same count and under the same terms, the value for `CN(C)c1ccnc(NC2CCC(CNC(=O)OCc3ccccc3)CC2)n1` (stereo not shown) [compound 1651] was 3 (Class 3 The value of percent of control at 10^−7 M was more than 60% or the value of IC50 was more than 200 nM.).
Take `CN(C)c1ccnc(N[C@H]2CC[C@@H](NC(=O)Nc3ccc(F)cc3F)CC2)n1` [compound 2181]: under setting [3], the class was 3 (Class 3 The value of percent of control at 10^−7 M was more than 60% or the value of IC50 was more than 200 nM.).
Still for that read-out and setting: the value for `COc1ccc(CC(=O)NC[C@H]2CC[C@@H](Nc3nc4c(c(N(C)C)n3)CCCC4)CC2)cc1` [compound 631] was 1 (Class 1: The value of percent of control at 10^−7 M was less than 40% or the value of IC50 was less than 50 nM.).
`Cc1cccc(N(C)C(=O)N[C@H]2CC[C@@H](Nc3ncc(C)c(N(C)C)n3)CC2)c1` [compound 3023, N′-(cis-4-{[4-(dimethylamino)-5-methylpyrimidin-2-yl]amino}cyclohexyl)-N-methyl-N-(3-methylphenyl)urea]: the class under setting [2] is given as 1 (Class 1: The value of percent of control at 10^−7 M was less than 40% or the value of IC50 was less than 50 nM.).
In the case of `CCc1cccc(C(C)C)c1NC(=O)NC[C@H]1CC[C@@H](Nc2cc(N(C)C)c3ccccc3n2)CC1` [compound 2376, N-[(cis-4-{[4-(dimethylamino)quinolin-2-yl]amino}cyclohexyl)methyl]-N′-(2-ethyl-6-isopropylphenyl)urea], the class under setting [5] is on record as 1 (Class 1: The value of percent of control at 10^−7 M was less than 40% or the value of IC50 was less than 50 nM.).
For `CN(C)c1nc(N[C@H]2CC[C@@H](CNCCc3ccc(C(C)(C)C)cc3)CC2)nc2c1CCCC2` [compound 1503], under setting [3], the class was 3 (Class 3 The value of percent of control at 10^−7 M was more than 60% or the value of IC50 was more than 200 nM.).
As for `CN(C)c1cc(N[C@H]2CC[C@@H](NC(=O)CCc3ccccc3)CC2)nc2ccccc12` [compound 127], under setting [1], the class is given as 3 (Class 3 The value of percent of control at 10^−7 M was more than 60% or the value of IC50 was more than 200 nM.).
Turning to `CN(C)c1cc(N[C@H]2CC[C@@H](NC(=O)CC(c3ccccc3)c3ccccc3)CC2)nc2ccccc12` [compound 756], the class under setting [3] is recorded as 3 (Class 3 The value of percent of control at 10^−7 M was more than 60% or the value of IC50 was more than 200 nM.).
In the case of `COc1ccc(OC)c(CC(=O)NC[C@H]2CC[C@@H](Nc3nc4c(c(N(C)C)n3)CCCC4)CC2)c1` [compound 597], the class under setting [6] is given as 3 (Class 3 The value of percent of control at 10^−7 M was more than 60% or the value of IC50 was more than 200 nM.).
On to `COc1ccc(NC(=O)N[C@H]2CC[C@@H](Nc3cc(N(C)C)c4ccccc4n3)CC2)c(C)c1` [compound 2156], for which the class under setting [3] is recorded as 3 (Class 3 The value of percent of control at 10^−7 M was more than 60% or the value of IC50 was more than 200 nM.).
Turning to `COc1ccc(CCNC(=S)N[C@H]2CC[C@@H](Nc3nc4c(c(N(C)C)n3)CCCC4)CC2)cc1OC` [compound 1997], the class under setting [1] is 3 (Class 3 The value of percent of control at 10^−7 M was more than 60% or the value of IC50 was more than 200 nM.).
Still for that read-out and setting: under `CN(C)c1nc(N[C@H]2CC[C@@H](NC(=S)NCc3ccc(F)cc3)CC2)nc2c1CCCC2` [compound 2015] stands 3 (Class 3 The value of percent of control at 10^−7 M was more than 60% or the value of IC50 was more than 200 nM.).
Turning to `COc1cc(OC)c(CNC[C@H]2CC[C@@H](Nc3nccc(N(C)C)n3)CC2)cc1Br` [compound 1265], the class under setting [3] was 1 (Class 1: The value of percent of control at 10^−7 M was less than 40% or the value of IC50 was less than 50 nM.).
Regarding `CN(C)c1nc(N[C@H]2CC[C@@H](NCC3CN(C(c4ccccc4)c4ccccc4)C3)CC2)nc2c1CCCC2` [compound 1497], the class under setting [3] is 1 (Class 1: The value of percent of control at 10^−7 M was less than 40% or the value of IC50 was less than 50 nM.).
Regarding `CN(C)c1nc(N[C@H]2CC[C@@H](NC(=O)Nc3ccccc3I)CC2)nc2c1CCCC2` [compound 1678], the class under setting [4] is 3 (Class 3 The value of percent of control at 10^−7 M was more than 60% or the value of IC50 was more than 200 nM.).
Turning to `CN(C)c1ccnc(N[C@H]2CC[C@@H](CNC(=O)c3c(F)cccc3F)CC2)n1` [compound 447], under setting [6], the class is 3 (Class 3 The value of percent of control at 10^−7 M was more than 60% or the value of IC50 was more than 200 nM.).
Turning to `CN(C)c1cc(N[C@H]2CC[C@@H](NC(=O)C3CCCC[C@H]3C(=O)c3ccccc3)CC2)nc2ccccc12` (stereo partly shown) [compound 693], under setting [3], the class is 3 (Class 3 The value of percent of control at 10^−7 M was more than 60% or the value of IC50 was more than 200 nM.).
Turning to `CN(C)c1cc(N[C@H]2CC[C@@H](NC(=O)c3cc(Cl)sc3Cl)CC2)nc2ccccc12` [compound 83], the class under setting [1] was 2 (Class 2: The value of percent of control at 10^−7 M was from 40% to 60% or the value of IC′50 was from 50 nM to 200 nM.).
Still for that read-out and setting: the value for `CN(C)c1cc(N[C@H]2CC[C@@H](NC(=O)c3cc(F)c(F)c(F)c3F)CC2)nc2ccccc12` [compound 128] was 3 (Class 3 The value of percent of control at 10^−7 M was more than 60% or the value of IC50 was more than 200 nM.).
As for `COc1cccc(CN[C@H]2CC[C@@H](Nc3nc4c(c(N(C)C)n3)CCCC4)CC2)c1` [compound 1345], the class under setting [3] is recorded as 3 (Class 3 The value of percent of control at 10^−7 M was more than 60% or the value of IC50 was more than 200 nM.).
Still for that read-out and setting: the value for `CN(C)c1ccnc(N[C@H]2CC[C@@H](NC(=O)c3ccc4c(c3)OCO4)CC2)n1` [compound 265] was 3 (Class 3 The value of percent of control at 10^−7 M was more than 60% or the value of IC50 was more than 200 nM.); that for `CN(C)c1cc(N[C@H]2CC[C@@H](NC(=O)c3ccc(Cl)s3)CC2)nc2ccccc12` [compound 677] was 2 (Class 2: The value of percent of control at 10^−7 M was from 40% to 60% or the value of IC′50 was from 50 nM to 200 nM.).
Regarding `CC(C)c1ccccc1NC(=O)N[C@H]1CC[C@@H](Nc2nc3c(c(N(C)C)n2)CCCC3)CC1` [compound 1680], under setting [4], the class is given as 3 (Class 3 The value of percent of control at 10^−7 M was more than 60% or the value of IC50 was more than 200 nM.).
On to `CN(C)c1nc(N[C@H]2CC[C@@H](NC(=S)NC(=O)c3ccco3)CC2)nc2c1CCCC2` [compound 2038], for which the class under setting [1] was 3 (Class 3 The value of percent of control at 10^−7 M was more than 60% or the value of IC50 was more than 200 nM.).
As for `CN(C)c1cc(N[C@H]2CC[C@@H](CNC(=O)NCc3ccccc3Cl)CC2)nc2ccccc12` [compound 2375], the class under setting [5] is given as 3 (Class 3 The value of percent of control at 10^−7 M was more than 60% or the value of IC50 was more than 200 nM.).

The values are drawn from patent publication US20050197350A1, “Novel quinoline, tetrahydroquinazoline, and pyrimidine derivatives and methods of treatment related to the use thereof” (TAISHO PHARMACEUTICAL CO., LTD., priority 2003, published 2005).
